Measured values reported in ChEMBL document CHEMBL3991601, “The target landscape of clinical kinase drugs” (Science, 2017).
Activity calls are given as the source filed them. Cut-off read from the data, not from the text of the source, for most assays here: actives have a measured Kd and inactives only a lower limit.

Columns and labels:
[1] = target: T1, Non-receptor tyrosine-protein kinase TNK1 (Homo sapiens, UniProt Q13470)
T1 sequence (Q13470 whole entry): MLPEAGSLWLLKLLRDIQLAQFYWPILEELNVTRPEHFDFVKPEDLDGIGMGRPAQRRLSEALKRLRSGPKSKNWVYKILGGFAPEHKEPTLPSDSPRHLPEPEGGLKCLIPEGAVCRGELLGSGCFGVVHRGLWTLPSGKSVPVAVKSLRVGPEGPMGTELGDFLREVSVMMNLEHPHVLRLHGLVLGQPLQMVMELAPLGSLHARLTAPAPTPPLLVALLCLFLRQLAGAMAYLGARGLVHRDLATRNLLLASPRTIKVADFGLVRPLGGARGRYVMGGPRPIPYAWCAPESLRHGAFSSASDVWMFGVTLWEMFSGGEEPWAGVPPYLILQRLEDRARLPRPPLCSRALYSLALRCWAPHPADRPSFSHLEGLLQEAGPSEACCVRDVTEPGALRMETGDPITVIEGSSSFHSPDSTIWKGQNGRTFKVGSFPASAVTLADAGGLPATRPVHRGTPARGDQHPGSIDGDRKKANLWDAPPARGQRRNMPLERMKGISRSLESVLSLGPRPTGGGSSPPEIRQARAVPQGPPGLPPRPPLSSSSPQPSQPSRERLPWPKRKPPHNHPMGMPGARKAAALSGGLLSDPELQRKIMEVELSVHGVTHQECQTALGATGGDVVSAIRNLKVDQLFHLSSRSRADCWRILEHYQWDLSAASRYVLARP

[2] = target: Serine/threonine-protein kinase 26 (Homo sapiens, UniProt Q9P289)
[3] = target: MAP/microtubule affinity-regulating kinase 3 (Homo sapiens, UniProt P27448)
[4] = target: T2, ATP-dependent RNA helicase DDX1 (Homo sapiens, UniProt Q92499)
T2 sequence (Q92499 whole entry): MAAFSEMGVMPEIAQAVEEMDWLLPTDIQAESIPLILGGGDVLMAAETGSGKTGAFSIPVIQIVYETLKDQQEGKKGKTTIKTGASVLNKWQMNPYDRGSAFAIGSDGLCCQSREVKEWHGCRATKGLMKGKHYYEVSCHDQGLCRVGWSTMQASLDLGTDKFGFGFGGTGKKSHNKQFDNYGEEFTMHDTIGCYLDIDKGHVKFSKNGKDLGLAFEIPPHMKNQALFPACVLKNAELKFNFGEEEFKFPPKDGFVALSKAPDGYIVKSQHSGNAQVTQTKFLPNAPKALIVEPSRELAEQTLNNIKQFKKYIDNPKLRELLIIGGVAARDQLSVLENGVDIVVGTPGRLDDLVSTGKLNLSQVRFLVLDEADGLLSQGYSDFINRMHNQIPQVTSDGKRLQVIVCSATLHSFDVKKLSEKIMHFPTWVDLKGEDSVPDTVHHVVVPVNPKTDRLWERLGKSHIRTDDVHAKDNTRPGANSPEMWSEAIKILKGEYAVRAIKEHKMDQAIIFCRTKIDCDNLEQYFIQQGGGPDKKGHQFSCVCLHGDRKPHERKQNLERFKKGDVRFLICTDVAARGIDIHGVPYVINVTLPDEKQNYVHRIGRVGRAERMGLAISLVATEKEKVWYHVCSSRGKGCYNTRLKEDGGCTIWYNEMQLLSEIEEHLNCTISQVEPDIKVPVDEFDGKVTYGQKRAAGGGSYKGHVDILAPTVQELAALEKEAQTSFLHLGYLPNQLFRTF

[5] = target: T3, Tyrosine-protein kinase Tec (Homo sapiens, UniProt P42680)
T3 sequence (P42680 whole entry): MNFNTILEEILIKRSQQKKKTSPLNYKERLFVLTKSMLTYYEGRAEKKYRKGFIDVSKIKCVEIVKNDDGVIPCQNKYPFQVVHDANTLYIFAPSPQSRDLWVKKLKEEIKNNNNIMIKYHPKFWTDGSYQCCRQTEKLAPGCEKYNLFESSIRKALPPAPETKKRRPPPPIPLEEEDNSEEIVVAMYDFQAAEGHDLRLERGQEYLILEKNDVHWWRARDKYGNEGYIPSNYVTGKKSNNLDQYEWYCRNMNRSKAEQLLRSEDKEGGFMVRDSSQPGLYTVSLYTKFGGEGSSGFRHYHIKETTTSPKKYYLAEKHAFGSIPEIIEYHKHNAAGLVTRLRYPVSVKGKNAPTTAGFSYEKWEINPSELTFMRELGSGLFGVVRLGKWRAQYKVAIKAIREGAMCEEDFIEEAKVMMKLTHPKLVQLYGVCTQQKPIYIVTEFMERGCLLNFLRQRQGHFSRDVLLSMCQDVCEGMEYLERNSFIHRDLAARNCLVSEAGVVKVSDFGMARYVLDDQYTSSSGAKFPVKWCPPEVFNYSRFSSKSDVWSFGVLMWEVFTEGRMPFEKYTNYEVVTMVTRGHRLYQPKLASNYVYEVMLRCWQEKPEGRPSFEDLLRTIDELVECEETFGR

[6] = target: T4, Phosphatidylinositol 5-phosphate 4-kinase type-2 gamma (Homo sapiens, UniProt Q8TBX8)
T4 sequence (Q8TBX8 whole entry): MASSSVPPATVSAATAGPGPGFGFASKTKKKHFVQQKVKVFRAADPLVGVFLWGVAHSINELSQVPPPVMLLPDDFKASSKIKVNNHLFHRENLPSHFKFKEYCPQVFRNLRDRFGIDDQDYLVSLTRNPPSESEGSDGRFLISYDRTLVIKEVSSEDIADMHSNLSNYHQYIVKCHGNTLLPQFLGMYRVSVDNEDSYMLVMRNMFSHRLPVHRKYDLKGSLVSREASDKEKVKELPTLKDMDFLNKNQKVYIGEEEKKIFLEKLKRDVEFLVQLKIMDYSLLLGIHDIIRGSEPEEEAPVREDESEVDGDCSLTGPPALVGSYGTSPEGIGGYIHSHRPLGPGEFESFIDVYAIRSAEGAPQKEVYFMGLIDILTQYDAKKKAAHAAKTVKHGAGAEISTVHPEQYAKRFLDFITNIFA

[7] = target: Atypical kinase COQ8A, mitochondrial (Homo sapiens, UniProt Q8NI60)
[8] = target: Guanine nucleotide-binding protein G(i) subunit alpha-2 (Homo sapiens, UniProt P04899)
Note: in the data inactive means no Kd found up to 30 µM.

Chain of Atypical kinase COQ8A, mitochondrial (Q8NI60 whole entry): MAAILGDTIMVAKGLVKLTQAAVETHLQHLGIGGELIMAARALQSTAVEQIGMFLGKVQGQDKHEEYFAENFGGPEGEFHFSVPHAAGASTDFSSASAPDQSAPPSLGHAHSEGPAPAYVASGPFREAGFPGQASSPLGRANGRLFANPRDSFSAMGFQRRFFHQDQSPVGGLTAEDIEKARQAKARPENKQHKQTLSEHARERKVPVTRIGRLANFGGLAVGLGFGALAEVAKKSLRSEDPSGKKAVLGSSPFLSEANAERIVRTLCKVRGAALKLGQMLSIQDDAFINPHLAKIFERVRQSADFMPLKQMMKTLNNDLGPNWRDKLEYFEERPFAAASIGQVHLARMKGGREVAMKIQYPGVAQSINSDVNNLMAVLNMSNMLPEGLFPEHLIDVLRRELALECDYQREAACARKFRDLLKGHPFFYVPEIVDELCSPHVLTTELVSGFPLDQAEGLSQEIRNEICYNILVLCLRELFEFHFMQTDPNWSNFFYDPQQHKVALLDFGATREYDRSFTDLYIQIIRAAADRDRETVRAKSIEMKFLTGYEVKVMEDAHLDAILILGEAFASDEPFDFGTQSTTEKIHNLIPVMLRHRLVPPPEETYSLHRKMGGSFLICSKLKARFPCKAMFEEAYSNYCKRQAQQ
Chain of Serine/threonine-protein kinase 26 (Q9P289 whole entry): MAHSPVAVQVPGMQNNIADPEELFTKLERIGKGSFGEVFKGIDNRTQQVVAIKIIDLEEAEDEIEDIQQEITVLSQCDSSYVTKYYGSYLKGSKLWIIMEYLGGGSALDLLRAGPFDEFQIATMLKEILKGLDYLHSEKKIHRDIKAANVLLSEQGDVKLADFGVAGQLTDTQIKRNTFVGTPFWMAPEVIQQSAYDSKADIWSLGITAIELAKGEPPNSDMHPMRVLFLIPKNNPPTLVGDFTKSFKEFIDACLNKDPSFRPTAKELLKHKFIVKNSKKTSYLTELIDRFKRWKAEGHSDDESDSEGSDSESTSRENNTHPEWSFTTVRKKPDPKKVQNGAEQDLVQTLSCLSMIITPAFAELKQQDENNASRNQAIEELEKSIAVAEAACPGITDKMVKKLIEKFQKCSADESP
Chain of Guanine nucleotide-binding protein G(i) subunit alpha-2 (P04899 whole entry): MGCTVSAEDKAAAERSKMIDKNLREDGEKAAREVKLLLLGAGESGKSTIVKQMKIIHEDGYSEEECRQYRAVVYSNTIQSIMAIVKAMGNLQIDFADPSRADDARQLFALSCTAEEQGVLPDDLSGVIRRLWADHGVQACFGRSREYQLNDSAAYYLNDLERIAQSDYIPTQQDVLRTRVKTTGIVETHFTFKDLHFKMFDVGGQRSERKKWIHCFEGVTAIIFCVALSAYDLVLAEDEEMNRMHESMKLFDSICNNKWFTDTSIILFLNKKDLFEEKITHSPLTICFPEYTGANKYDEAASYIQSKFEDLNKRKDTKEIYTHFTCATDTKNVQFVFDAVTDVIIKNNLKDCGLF
Chain of MAP/microtubule affinity-regulating kinase 3 (P27448 whole entry): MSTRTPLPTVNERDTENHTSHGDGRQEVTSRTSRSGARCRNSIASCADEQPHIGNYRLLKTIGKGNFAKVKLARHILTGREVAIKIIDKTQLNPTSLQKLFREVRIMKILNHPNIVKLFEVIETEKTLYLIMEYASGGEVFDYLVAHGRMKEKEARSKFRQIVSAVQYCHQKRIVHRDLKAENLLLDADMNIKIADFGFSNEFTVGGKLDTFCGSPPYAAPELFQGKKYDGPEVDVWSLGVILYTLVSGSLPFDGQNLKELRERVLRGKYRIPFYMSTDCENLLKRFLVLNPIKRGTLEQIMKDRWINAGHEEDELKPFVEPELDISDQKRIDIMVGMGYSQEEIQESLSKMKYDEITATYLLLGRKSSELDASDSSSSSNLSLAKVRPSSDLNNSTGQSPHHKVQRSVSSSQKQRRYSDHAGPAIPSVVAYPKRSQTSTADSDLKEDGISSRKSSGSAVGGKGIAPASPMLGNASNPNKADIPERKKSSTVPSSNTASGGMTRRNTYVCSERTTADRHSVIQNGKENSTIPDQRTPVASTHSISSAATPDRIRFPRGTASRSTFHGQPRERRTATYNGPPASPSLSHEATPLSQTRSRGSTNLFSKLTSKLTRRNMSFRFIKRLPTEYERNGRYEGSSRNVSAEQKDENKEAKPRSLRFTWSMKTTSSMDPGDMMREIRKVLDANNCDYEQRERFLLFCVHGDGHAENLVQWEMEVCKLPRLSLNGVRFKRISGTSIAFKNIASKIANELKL

SMILES	Kd [1]	Kd [2]	Kd [3]	Kd [4]	Kd [5]	Kd [6]	Kd [7]	Kd [8]
NC[C@@](O)(c1ccc(Cl)cc1)c1ccc(-c2cn[nH]c2)cc1 [AT-13148]	> 30 µM (inactive)	> 30 µM (inactive)	> 30 µM (inactive)	> 30 µM (inactive)	> 30 µM (inactive)	> 30 µM (inactive)	> 30 µM (inactive)	> 30 µM (inactive)
COc1cc2nccc(Oc3ccc(NC(=O)C4(C(=O)Nc5ccc(F)cc5)CC4)cc3)c2cc1OC [CABOZANTINIB]	> 30 µM (inactive)	> 30 µM (inactive)	> 30 µM (inactive)	> 30 µM (inactive)	> 30 µM (inactive)	2.9 µM (active)	> 30 µM (inactive)	> 30 µM (inactive)
Cc1c(NC(=O)OC[C@@H]2COCCN2)cn2ncnc(Nc3ccc4c(cnn4Cc4cccc(F)c4)c3)c12 [AC-480]	> 30 µM (inactive)	> 30 µM (inactive)	> 30 µM (inactive)	> 30 µM (inactive)	> 30 µM (inactive)	> 30 µM (inactive)	> 30 µM (inactive)	> 30 µM (inactive)
Cc1cc(Nc2nc(N[C@@H](C)c3ncc(F)cn3)ncc2Cl)n[nH]1 [AZD-1480]	1.26 µM (active)	> 30 µM (inactive)	> 30 µM (inactive)	> 30 µM (inactive)	> 30 µM (inactive)	> 30 µM (inactive)	> 30 µM (inactive)	> 30 µM (inactive)
CCc1cc2c(cc1N1CCC(N3CCOCC3)CC1)C(C)(C)c1[nH]c3cc(C#N)ccc3c1C2=O [ALECTINIB]	> 30 µM (inactive)	> 30 µM (inactive)	> 30 µM (inactive)	> 30 µM (inactive)	> 30 µM (inactive)	> 30 µM (inactive)	> 30 µM (inactive)	> 30 µM (inactive)

Second part, the compound after the results:

Kd [1]	Kd [2]	Kd [3]	Kd [4]	Kd [5]	Kd [6]	Kd [7]	Kd [8]	SMILES
> 30 µM (inactive)	> 30 µM (inactive)	> 30 µM (inactive)	> 30 µM (inactive)	> 30 µM (inactive)	> 30 µM (inactive)	> 30 µM (inactive)	> 30 µM (inactive)	O=C(NC[C@H](O)CO)c1ccncc1Nc1ccc(I)cc1F [PIMASERTIB]
> 30 µM (inactive)	> 30 µM (inactive)	> 30 µM (inactive)	> 30 µM (inactive)	> 30 µM (inactive)	> 30 µM (inactive)	> 30 µM (inactive)	> 30 µM (inactive)	Cc1cc(-c2cc(OC(=O)c3ccccc3)ccc2Cl)cc2nnc(Nc3ccc(OCCN4CCCC4)cc3)nc12 [TG100-801]
> 30 µM (inactive)	> 30 µM (inactive)	> 30 µM (inactive)	> 30 µM (inactive)	> 30 µM (inactive)	> 30 µM (inactive)	> 30 µM (inactive)	> 30 µM (inactive)	O=C(Nc1ccc(OC(F)(F)F)cc1)c1sccc1NCc1ccnc2ccccc12 [OSI-930]
> 30 µM (inactive)	> 30 µM (inactive)	> 30 µM (inactive)	> 30 µM (inactive)	> 30 µM (inactive)	> 30 µM (inactive)	> 30 µM (inactive)	> 30 µM (inactive)	FC(F)(F)c1ccc(CNc2ccc(Cc3c[nH]c4ncc(Cl)cc34)cn2)cn1 [PEXIDARTINIB]
> 30 µM (inactive)	> 30 µM (inactive)	> 30 µM (inactive)	> 30 µM (inactive)	> 30 µM (inactive)	> 30 µM (inactive)	> 30 µM (inactive)	> 30 µM (inactive)	O=S(=O)(c1cccc2c(O)nccc12)N1CCCNCC1 [HYDROXYFASUDIL]
